Here are results for 24 compounds from patent publication US20250099448A1, “HETEROCYCLIC COMPOUNDS” (Hoffmann-La Roche Inc., priority 2022, published 2025).

Each structure is given as a SMILES string.

The target of the assay is T1, MAGL protein (Homo sapiens, UniProt Q99685).
T1 sequence (Q99685 1-303): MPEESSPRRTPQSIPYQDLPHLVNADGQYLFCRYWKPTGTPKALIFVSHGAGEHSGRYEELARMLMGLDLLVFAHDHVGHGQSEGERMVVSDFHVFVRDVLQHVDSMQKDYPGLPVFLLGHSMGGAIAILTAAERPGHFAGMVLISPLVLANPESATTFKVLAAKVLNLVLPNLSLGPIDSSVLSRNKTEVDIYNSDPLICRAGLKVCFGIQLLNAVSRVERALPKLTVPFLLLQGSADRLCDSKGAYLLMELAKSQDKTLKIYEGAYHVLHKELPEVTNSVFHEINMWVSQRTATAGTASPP
Description: 2-AG assay: MAGL inhibitory activity by hydrolysis of 2-arachidonoylglycerol to arachidonic acid, followed by mass spectrometry. Format: biochemical. Particulars: 8 μM 2-arachidonoylglycerol, 15 min preincubation, 30 min reaction at RT, RapidFire MS readout. In short, it runs like this:
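MAGL was preincubated 15 min at RT with compound (12.5 to […], 3-fold steps) in 50 mM TRIS, 1 mM EDTA, 0.01% Tween-20, 2.5% DMSO. The reaction ran 30 min at RT with 8 μM 2-AG. Arachidonic acid was quantified by RapidFire SPE-MS/MS against a d8-arachidonic acid internal standard.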

Compound `O=C(N1CCC(OCc2ccc(C(F)(F)F)cc2F)CC1)N1CC2(CC(c3nc(C4CC4)n[nH]3)C2)C1` [Example 906, [6-(3-cyclopropyl-1H-1,2,4-triazol-5-yl)-2-azaspiro[3.3]heptan-2-yl]-[4-[2-fluoro-4-(trifluoromethyl)benzyl]oxypiperidino]methanone] displayed an IC50 of 0.00561 µM. This counts as single-digit nanomolar.

`CS(=O)(=O)c1cc(C(F)(F)F)ccc1COC1CCN(C(=O)N2CC3(CC(c4nc(C5CC5)n[nH]4)C3)C2)CC1` [Example 907, [6-(3-cyclopropyl-1H-1,2,4-triazol-5-yl)-2-azaspiro[3.3]heptan-2-yl]-[4-[2-mesyl-4-(trifluoromethyl)benzyl]oxypiperidino]methanone] yielded an IC50 of 0.0431 µM.

As to `N#Cc1cc(Cl)cnc1OCC1CCN(C(=O)N2CC3(CC(c4nc(C5CC5)n[nH]4)C3)C2)CC1` [Example 908], the IC50 was 0.0566 µM.

Take `N#Cc1[nH]nnc1-c1ccc(C2CN(C(=O)N3CC4(CC(c5nnc(C6CC6)[nH]5)C4)C3)C2)cc1` [Example 910, 4-[4-[1-[6-(5-cyclopropyl-4H-1,2,4-triazol-3-yl)-2-azaspiro[3.3]heptane-2-carbonyl]azetidin-3-yl]phenyl]-1H-triazole-5-carbonitrile]: half-maximal inhibition (IC50) was put at 0.00423 µM.

In the case of `CS(=O)(=O)c1cc(C(F)(F)F)ccc1OCC1CCN(C(=O)N2CC3(CC(c4nc(C5CC5)n[nH]4)C3)C2)CC1` [Example 915, [6-(3-cyclopropyl-1H-1,2,4-triazol-5-yl)-2-azaspiro[3.3]heptan-2-yl]-[4-[[2-mesyl-4-(trifluoromethyl)phenoxy]methyl]piperidino]methanone], the IC50 stood at 0.241 µM.

Compound `O=C(N1CCC(COc2ccc(F)c(C(F)(F)F)c2)CC1)N1CC2(CC(c3nc(C4(O)CC4)n[nH]3)C2)C1` [Example 916, [4-[[4-fluoro-3-(trifluoromethyl)phenoxy]methyl]piperidino]-[6-[3-(1-hydroxycyclopropyl)-1H-1,2,4-triazol-5-yl]-2-azaspiro[3.3]heptan-2-yl]methanone] yielded an IC50 of 0.0397 µM.

On to `CS(=O)(=O)c1cc(OC(F)(F)F)ccc1OCC1CCN(C(=O)N2CC3(CC(c4nnc(C5CC5)[nH]4)C3)C2)CC1` [Example 917, [6-(5-cyclopropyl-4H-1,2,4-triazol-3-yl)-2-azaspiro[3.3]heptan-2-yl]-[4-[[2-mesyl-4-(trifluoromethoxy)phenoxy]methyl]piperidino]methanone], for which the IC50 worked out at 0.237 µM.

In the case of `CS(=O)(=O)c1ccc(COC2CCN(C(=O)N3CC4(CC(c5nc(C6(O)CC6)n[nH]5)C4)C3)CC2)c(Cl)c1` [Example 918, [4-(2-chloro-4-mesyl-benzyl)oxypiperidino]-[6-[3-(1-hydroxycyclopropyl)-1H-1,2,4-triazol-5-yl]-2-azaspiro[3.3]heptan-2-yl]methanone], the IC50 stood at 0.964 µM.

In turn, `CS(=O)(=O)c1cc(C(F)(F)F)ccc1OCC1CCN(C(=O)N2CC3(CC(c4nc(C5(O)CC5)n[nH]4)C3)C2)CC1` [Example 919, [6-[3-(1-hydroxycyclopropyl)-1H-1,2,4-triazol-5-yl]-2-azaspiro[3.3]heptan-2-yl]-[4-[[2-mesyl-4-(trifluoromethyl)phenoxy]methyl]piperidino]methanone] returned an IC50 of 1.2 µM. This IC50 and that of the compound before are within 1.5-fold of each other.

Turning to `O=C(N1CCC(COc2cc(F)cc(C(F)(F)F)c2)CC1)N1CC2(CC(c3nc(C4(O)CC4)n[nH]3)C2)C1` [Example 921, [4-[[3-fluoro-5-(trifluoromethyl)phenoxy]methyl]piperidino]-[6-[3-(1-hydroxycyclopropyl)-1H-1,2,4-triazol-5-yl]-2-azaspiro[3.3]heptan-2-yl]methanone], 0.0315 µM corresponded to half-maximal inhibition (IC50).

The compound `CS(=O)(=O)c1ccc(OCC2CCN(C(=O)N3CC4(CC(c5nc(C6(O)CC6)n[nH]5)C4)C3)CC2)cc1C(F)(F)F` [Example 922] had an IC50 of 0.326 µM.

As for `CS(=O)(=O)c1cc(OC(F)(F)F)ccc1OCC1CCN(C(=O)N2CC3(CC(c4nc(C5(O)CC5)n[nH]4)C3)C2)CC1` [Example 923], inhibition was half-maximal at 0.731 µM (IC50).

For `CS(=O)(=O)c1ccc(OCC2CCN(C(=O)N3CC4(CC(c5n[nH]c(C6CC6)n5)C4)C3)CC2)cc1C(F)(F)F` [Example 924, [6-(5-cyclopropyl-1H-1,2,4-triazol-3-yl)-2-azaspiro[3.3]heptan-2-yl]-[4-[[4-mesyl-3-(trifluoromethyl)phenoxy]methyl]piperidino]methanone], the IC50 amounted to 0.0492 µM.

With `CS(=O)(=O)c1ccc(COC2CCN(C(=O)N3CC4(CC(c5n[nH]c(C6CC6)n5)C4)C3)CC2)c(Cl)c1` [Example 925, [4-(2-chloro-4-mesyl-benzyl)oxypiperidino]-[6-(5-cyclopropyl-1H-1,2,4-triazol-3-yl)-2-azaspiro[3.3]heptan-2-yl]methanone], the IC50 turned out to be 0.0792 µM.

Compound `NC1(c2nnc(C3CC4(C3)CN(C(=O)N3CC5(CC(Cc6ccc(C(F)(F)F)cn6)C5)C3)C4)[nH]2)CC1` [Example 948, [6-[5-(1-aminocyclopropyl)-4H-1,2,4-triazol-3-yl]-2-azaspiro[3.3]heptan-2-yl]-[6-[[5-(trifluoromethyl)-2-pyridyl]methyl]-2-azaspiro[3.3]heptan-2-yl]methanone] showed an IC50 of 0.00235 µM. This IC50 lies about 34-fold lower than the previous one.

For `O=C(N1CC2(CCN(Cc3cc(C(F)(F)F)no3)CC2)C1)N1CC2(CC(c3nc(C4CC4)n[nH]3)C2)C1` [Example 955, [6-(3-cyclopropyl-1H-1,2,4-triazol-5-yl)-2-azaspiro[3.3]heptan-2-yl]-[7-[[3-(trifluoromethyl)isoxazol-5-yl]methyl]-2,7-diazaspiro[3.5]nonan-2-yl]methanone], the IC50 was 0.0231 µM.

`Cn1c(CN2CC3(C2)CN(C(=O)N2CC4(CC(c5nc(C6CC6)n[nH]5)C4)C2)C3)nnc1C(F)(F)F` [Example 958, [6-(3-cyclopropyl-1H-1,2,4-triazol-5-yl)-2-azaspiro[3.3]heptan-2-yl]-[6-[[4-methyl-5-(trifluoromethyl)-1,2,4-triazol-3-yl]methyl]-2,6-diazaspiro[3.3]heptan-2-yl]methanone] returned an IC50 of 0.152 µM.

In the case of `O=C(c1cccc(F)c1)N1CCN(C(=O)N2CC3(CC(c4nnc(C5CC5)[nH]4)C3)C2)CC1` [Example 979, [4-[6-(5-cyclopropyl-4H-1,2,4-triazol-3-yl)-2-azaspiro[3.3]heptane-2-carbonyl]piperazino]-(3-fluorophenyl)methanone], the concentration for half-maximal inhibition (IC50) came out at 2.94 µM.

`COc1cc(COC2CCN(C(=O)N3CC4(CC(c5nc(C6CC6)n[nH]5)C4)C3)CC2)ccc1C(N)=O` [Example 980, 4-[[1-[6-(3-cyclopropyl-1H-1,2,4-triazol-5-yl)-2-azaspiro[3.3]heptane-2-carbonyl]-4-piperidyl]oxymethyl]-2-methoxy-benzamide] had a half-inhibitory concentration (IC50) of 2.52 µM.

In turn, `N=S(=O)(c1ccc(CC2CC3(C2)CN(C(=O)N2CC4(CC(c5nc(C6CC6)n[nH]5)C4)C2)C3)cc1)C(F)(F)F` (stereo not drawn) [compound 2] registered an IC50 of 0.00019 µM.

In turn, `O=C(N1CC2(CC(Cc3cnc(C(F)(F)F)cn3)C2)C1)N1CC2(CC(c3nc(C4(O)CC4)n[nH]3)C2)C1` [compound 4] came in with an IC50 of 0.00489 µM.

Turning to `O=C(N1CC2(CC(Cc3ccc(C(F)(F)F)nc3)C2)C1)N1CC2(CC(c3nnc(C4CC4)[nH]3)C2)C1` [compound 5], the IC50 stood at 0.00016 µM.

On to `O=C(N1CC2(CC(Cc3ccc(C(F)(F)F)nc3)C2)C1)N1CC2(CC(c3nnc(C4(O)CC4)[nH]3)C2)C1` [compound 6], for which 0.00115 µM corresponded to half-maximal inhibition (IC50).

The compound `O=C(N1CC2(CC(Cc3ccc(C(F)(F)F)nc3)C2)C1)N1CC2(CC(c3nnc(C4CCC4)[nH]3)C2)C1` [compound 7] gave an IC50 of 0.00365 µM.
